Measurements from BindingDB's records for doi:10.1021/jm501787c (Duquesne University, 2015).

Assays:
[1] = Binding affinity to human FRalpha expressed in Chinese hamster RT16 cells assessed as cell growth inhibition after 96 hrs by CellTiter-Blue assay
[2] = Binding affinity to human PCFT expressed in Chinese hamster R2/PCFT4 cells assessed as cell growth inhibition after 96 hrs by CellTiter-Blue assay
[3] = Binding affinity to human RFC expressed in Chinese hamster PC43-10 cells assessed as cell growth inhibition after 96 hrs by CellTiter-Blue assay

Structure (SMILES)	IC50 [1] [nM]	IC50 [2] [nM]	IC50 [3] [nM]
Nc1nc2[nH]cc(Cc3ccc(C(=O)N[C@@H](CCC(=O)O)C(=O)O)s3)c2c(=O)[nH]1	> 1000	> 1000	> 1000
Nc1nc2[nH]cc(CCc3ccc(C(=O)N[C@@H](CCC(=O)O)C(=O)O)s3)c2c(=O)[nH]1	550	80	60
Nc1nc2[nH]cc(CCCc3ccc(C(=O)N[C@@H](CCC(=O)O)C(=O)O)s3)c2c(=O)[nH]1	109	312	116
Nc1nc2[nH]cc(CCCCc3ccc(C(=O)N[C@@H](CCC(=O)O)C(=O)O)s3)c2c(=O)[nH]1	49	141	38
Nc1nc2[nH]cc(CCCCCc3ccc(C(=O)N[C@@H](CCC(=O)O)C(=O)O)s3)c2c(=O)[nH]1	46	57	243
Nc1nc2[nH]cc(CCCCCCc3ccc(C(=O)N[C@@H](CCC(=O)O)C(=O)O)s3)c2c(=O)[nH]1	> 1000	> 1000	> 1000
Nc1nc2[nH]c(CCCCc3ccc(C(=O)N[C@@H](CCC(=O)O)C(=O)O)s3)cc2c(=O)[nH]1 [(S)-2-({5-[4-(2-Amino-4-oxo-4,7-dihydro-3H-pyrrolo[2,3-d]-pyrimidin-6-yl)-butyl]-thiophene-2-carbonyl}-amino)-pentanedioicAcid]	1.8		> 1000
